Assay results published in patent publication US9174948B2, “Desferrithiocin polyether analogues” (University of Florida Research Foundation, Inc., priority 2007, dated 2015).
Where two headings read alike, the source gives them in different places.

Columns and labels:
[1] = system: Non-Iron-Overloaded Rodents; settings: rats, po, 300 μmol/kg, historical data, cited from earlier work
[2] = system: Iron-Overloaded Cebus apella Primates; settings: Cebus apella, po, 150 μmol/kg, historical data, cited from earlier work
[3] = system: Non-Iron-Overloaded Rodents; assay: Chelator-induced iron clearance in non-iron-overloaded, bile duct-cannulated rats; format: in vivo, rat (male Sprague-Dawley); settings: po, 300 μmol/kg
Excerpt: Chelator-Induced Iron Clearance in Non-Iron-Overloaded Rodents. […] J. Med. Chem. 2006, 49, 2772-2783]. Recall that iron-clearing efficiency (ICE) is defined as (net iron excretion)/(total iron-binding capacity of the chelator), expressed as a percent. The relative ICE values of compounds 1 and 2 were in keeping with their log Papp values: the more lipophilic, the larger log Papp, the more efficient the chelator. […] However, the ICE trend was in keeping with the biliary ferrokinetics (FIG. 3) and liver concentration of the chelators, for example, 3>1 (FIG. 4).
Cannulation of Bile Duct in Non-Iron-Overloaded Rats has been described previously. […]. […] The urine sample(s) was taken at 24 h intervals. Sample collection and handling are as previously described [Bergeron, R. J., Streiff, R. R., Creary, E. A., Daniels, R. D., Jr., King, W., Luchetta, G., Wiegand, J., Moerker, T. and Peter, H. H. A Comparative Study of the Iron-Clearing Properties of Desferrithiocin Analogues with Desferrioxamine B in a Cebus Monkey Model. Blood 1993, 81, 2166-2173; Bergeron, R. J., Streiff, R. R., Wiegand, J., Vinson, J. R. T., Luchetta, G., Evans, K. M., Peter, H. and Jenny, H.-B. A Comparative Evaluation of Iron Clearance Models. Ann. N.Y. Acad. Sci. 1990, 612, 378-393].
(§1) In the iron-clearing experiments, the rats were given a single 300 μmol/kg dose of drugs 1-9 orally (po).
(§2) J. Med. Chem. 1999, 42, 2432-2440].

[4] = system: Iron-Overloaded Cebus apella Primates; assay: Chelator-induced iron clearance in iron-overloaded Cebus apella primates; format: in vivo; settings: po, 75 μmol/kg
Excerpt: Chelator-Induced Iron Clearance in Iron-Overloaded Cebus apella Primates. The iron-clearance data for all three sets of ligands are presented (Table 2). […] J. Med. Chem. 2003, 46, 1470-1477]>1 (16.8±7.2%) [Bergeron, R. J., Wiegand, J., McManis, J. S., McCosar, B. H., Weimar, W. R., Brittenham, G. M. and Smith, R. E. Effects of C-4 Stereochemistry and C-4′ Hydroxylation on the Iron Clearing Efficiency and Toxicity of Desferrithiocin Analogues. J. Med. Chem. 1999, 42, 2432-2440], the increase is not significant. Although (S)-4′-(HO)-DADFT-PE (3) is the least lipophilic chelator in the 1-3 series, it is just as efficient (ICE, 25.4±7.4%) [Bergeron, R. J., Wiegand, J., McManis, J. S., Vinson, J. R. T., Yao, H., Bharti, N. and Rocca, J. R. (S)-4,5-Dihydro-2-(2-hydroxy-4-hydroxyphenyl)-4-methyl-4-thiazolecarboxylic Acid Polyethers: A Solution to Nephrotoxicity.
The monkeys (3.5-4 kg) were iron overloaded with intravenous iron dextran as specified in earlier publications to provide about 500 mg of iron per kg of body weight [Bergeron, R. J., Streiff, R. R., Wiegand, J., Luchetta, G., Creary, E. A. and Peter, H. H. A Comparison of the Iron-Clearing Properties of 1,2-Dimethyl-3-hydroxypyrid-4-one, 1,2-Diethyl-3-hydroxypyrid-4-one, and Deferoxamine. Blood 1992, 79, 1882-1890]; the serum transferrin iron saturation rose to between 70 and 80%. At least 20 half-lives, 60 d [Wood, J. K., Milner, P. F. and Pathak, U. N. The Metabolism of Iron-dextran Given as a Total-dose Infusion to Iron Deficient Jamaican Subjects. Br. J. Haematol. 1968, 14, 119-129], elapsed before any of the animals were used in experiments evaluating iron-chelating agents.
Fecal and urine samples were collected at 24-h intervals and processed as described previously [Bergeron, R. J., Streiff, R. R., Creary, E. A., Daniels, R. D., Jr., King, W., Luchetta, G., Wiegand, J., Moerker, T. and Peter, H. H. A Comparative Study of the Iron-Clearing Properties of Desferrithiocin Analogues with Desferrioxamine B in a Cebus Monkey Model. Blood 1993, 81, 2166-2173; Bergeron, R. J., Streiff, R. R., Wiegand, J., Vinson, J. R. T., Luchetta, G., Evans, K. M., Peter, H. and Jenny, H.-B. A Comparative Evaluation of Iron Clearance Models. Ann. N.Y. Acad. Sci. 1990, 612, 378-393; Bergeron, R. J., Wiegand, J. and Brittenham, G. M. HBED: A Potential Alternative to Deferoxamine for Iron-Chelating Therapy. Blood 1998, 91, 1446-1452]. Briefly, the collections began 4 d prior to the administration of the test drug and continued for an additional 5 d after the drug was given. Iron concentrations were determined by flame atomic absorption spectroscopy as presented in other publications [Bergeron, R. J., Streiff, R. R., Wiegand, J., Vinson, J. R. T., Luchetta, G., Evans, K. M., Peter, H. and Jenny, H.-B. A Comparative Evaluation of Iron Clearance Models. Ann. N.Y. Acad. Sci. 1990, 612, 378-393; Bergeron, R. J., Wiegand, J., Wollenweber, M., McManis, J. S., Algee, S. E. and Ratliff-Thompson, K. Synthesis and Biological Evaluation of Naphthyldesferrithiocin Iron Chelators. J. Med. Chem. 1996, 39, 1575-1581].
as §1, §2

C[C@]1(C(=O)O)CSC(c2cc(O)ccc2O)=N1 [Compound 4, (S)-2-(2,5-dihydroxyphenyl)-4,5-dihydro-4-methyl-4-thiazolecarboxylic acid]
Iron-Clearing Efficiency (%) [1]: 1.0±0.9% | Iron-Clearing Efficiency (%) [2]: 12.6±3.0%

COc1ccc(O)c(C2=N[C@@](C)(C(=O)O)CS2)c1 [Compound 5, (S)-4,5-dihydro-2-(2-hydroxy-5-methoxyphenyl)-4-methyl-4-thiazolecarboxylic acid]
Iron-Clearing Efficiency (%) [1]: 6.3±1.2% | Iron-Clearing Efficiency (%) [2]: 18.9±2.3%

COc1cccc(C2=N[C@@](C)(C(=O)O)CS2)c1O [Compound 8]
Iron-Clearing Efficiency (%) ([3]; 48 h sample collection period): 12.4±3.5% | Iron-Clearing Efficiency (%) [2]: 22.5±7.1%

C[C@]1(C(=O)O)CSC(c2ccc(O)cc2O)=N1 [drawing 3]
relative percentages of the iron excreted in the bile and urine [1]: 100/0 | Iron-Clearing Efficiency (%) [1]: 1.1 ± 0.8%

COc1ccc(C2=N[C@@](C)(C(=O)O)CS2)c(O)c1 [drawing 4]
relative percentages of the iron excreted in the bile and urine [1]: 98/2 | Iron-Clearing Efficiency (%) [1]: 6.6 ± 2.8%

COCCOCCOCCOc1ccc(C2=N[C@@](C)(C(=O)O)CS2)c(O)c1 [drawing 5]
relative percentages of the iron excreted in the bile and urine [1]: 90/10 | Iron-Clearing Efficiency (%) [1]: 5.5 ± 1.9%

C[C@]1(C(=O)O)CSC(c2cc(O)ccc2O)=N1 [drawing 6]
relative percentages of the iron excreted in the bile and urine [1]: 99/1 | Iron-Clearing Efficiency (%) [1]: 1.0 ± 0.9%

COc1ccc(O)c(C2=N[C@@](C)(C(=O)O)CS2)c1 [drawing 7]
relative percentages of the iron excreted in the bile and urine [1]: 95/5 | Iron-Clearing Efficiency (%) [1]: 6.3 ± 1.2%

COCCOCCOCCOc1ccc(O)c(C2=N[C@@](C)(C(=O)O)CS2)c1 [drawing 8]
Iron-Clearing Efficiency (%) [3]: 8.0 ± 1.8% | relative percentages of the iron excreted in the bile and urine [3]: 98/2

C[C@]1(C(=O)O)CSC(c2cccc(O)c2O)=N1 [drawing 9]
Iron-Clearing Efficiency (%) [3]: 4.6 ± 0.9% | relative percentages of the iron excreted in the bile and urine [3]: 98/2

COc1cccc(C2=N[C@@](C)(C(=O)O)CS2)c1O [drawing 10]
Iron-Clearing Efficiency (%) ([3]; 48 h sample collection period): 12.4 ± 3.5% | relative percentages of the iron excreted in the bile and urine ([3]; 48 h sample collection period): 99/1

COCCOCCOCCOc1cccc(C2=N[C@@](C)(C(=O)O)CS2)c1O [drawing 11]
Iron-Clearing Efficiency (%) ([3]; 48 h sample collection period): 10.6 ± 4.4% | relative percentages of the iron excreted in the bile and urine ([3]; 48 h sample collection period): 95/5

C[C@]1(C(=O)O)CSC(c2ccc(O)cc2O)=N1 [drawing 12]
Iron-Clearing Efficiency (%) [2]: 16.8 ± 7.2% | relative percentages of the iron excreted in the stool and urine [2]: 88/12

COc1ccc(C2=N[C@@](C)(C(=O)O)CS2)c(O)c1 [drawing 13]
Iron-Clearing Efficiency (%) [2]: 24.4 ± 10.8% | relative percentages of the iron excreted in the stool and urine [2]: 91/9

COCCOCCOCCOc1ccc(C2=N[C@@](C)(C(=O)O)CS2)c(O)c1 [drawing 14]
Iron-Clearing Efficiency (%) [2]: 25.4 ± 7.4% | relative percentages of the iron excreted in the stool and urine [2]: 96/4

C[C@]1(C(=O)O)CSC(c2cc(O)ccc2O)=N1 [drawing 15]
Iron-Clearing Efficiency (%) [2]: 12.6 ± 3.0% | relative percentages of the iron excreted in the stool and urine [2]: 88/12

COc1ccc(O)c(C2=N[C@@](C)(C(=O)O)CS2)c1 [drawing 16]
Iron-Clearing Efficiency (%) [2]: 18.9 ± 2.3% | relative percentages of the iron excreted in the stool and urine [2]: 94/6

COCCOCCOCCOc1ccc(O)c(C2=N[C@@](C)(C(=O)O)CS2)c1 [drawing 17]
Iron-Clearing Efficiency (%) [4]: 8.1 ± 2.8% | relative percentages of the iron excreted in the stool and urine [4]: 56/44

C[C@]1(C(=O)O)CSC(c2cccc(O)c2O)=N1 [drawing 18]
Iron-Clearing Efficiency (%) [2]: 23.1 ± 5.9% | relative percentages of the iron excreted in the stool and urine [2]: 83/17

COc1cccc(C2=N[C@@](C)(C(=O)O)CS2)c1O [drawing 19]
Iron-Clearing Efficiency (%) [2]: 22.5 ± 7.1% | relative percentages of the iron excreted in the stool and urine [2]: 91/9

COCCOCCOCCOc1cccc(C2=N[C@@](C)(C(=O)O)CS2)c1O [drawing 20]
Iron-Clearing Efficiency (%) [4]: 24.5 ± 7.6% | relative percentages of the iron excreted in the stool and urine [4]: 72/28
